# Source: ChEMBL document CHEMBL1201862, “PubChem BioAssay data set” (2004)
# Activity calls are given as the source filed them. No stated cut-off is given here; in the data, actives have a measured IC50 and inactives only a lower limit.
# Target: Envelope glycoprotein gp160 (Human immunodeficiency virus 1, UniProt Q6QLK5)
# Assay: inhibitors of HIV fusion peptide binding, primary screen, biochemical, uHTS, fluorescence dequenching (AID 1986)
# Envelope glycoprotein gp160, sequence (Q6QLK5 whole entry, the tested form may be a part): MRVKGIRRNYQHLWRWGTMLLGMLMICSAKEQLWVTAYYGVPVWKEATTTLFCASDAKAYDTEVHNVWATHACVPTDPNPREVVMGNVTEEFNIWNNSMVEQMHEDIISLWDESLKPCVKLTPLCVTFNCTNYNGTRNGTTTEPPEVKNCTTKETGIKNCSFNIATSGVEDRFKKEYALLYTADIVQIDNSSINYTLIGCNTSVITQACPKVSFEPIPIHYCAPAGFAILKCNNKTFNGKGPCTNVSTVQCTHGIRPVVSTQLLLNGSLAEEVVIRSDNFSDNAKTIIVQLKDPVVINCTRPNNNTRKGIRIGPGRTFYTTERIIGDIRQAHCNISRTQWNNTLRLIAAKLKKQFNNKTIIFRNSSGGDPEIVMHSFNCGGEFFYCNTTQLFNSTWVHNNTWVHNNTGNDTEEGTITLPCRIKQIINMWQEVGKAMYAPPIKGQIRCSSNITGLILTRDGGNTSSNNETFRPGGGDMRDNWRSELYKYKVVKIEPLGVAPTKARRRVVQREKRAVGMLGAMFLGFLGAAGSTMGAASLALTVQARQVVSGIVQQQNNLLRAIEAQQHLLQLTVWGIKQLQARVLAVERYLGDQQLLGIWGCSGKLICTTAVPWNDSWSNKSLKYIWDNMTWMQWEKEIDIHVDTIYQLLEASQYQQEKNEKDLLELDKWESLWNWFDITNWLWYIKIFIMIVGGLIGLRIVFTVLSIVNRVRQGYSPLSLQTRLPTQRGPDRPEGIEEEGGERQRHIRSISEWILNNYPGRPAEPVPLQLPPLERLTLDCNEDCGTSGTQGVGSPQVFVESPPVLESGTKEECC
row,Compound,IC50
1,O=C(O)c1[nH]c2ccccc2c1C(c1ccccc1)c1c(C(=O)O)[nH]c2ccccc12,14 µM (active)
2,Cc1sc(-n2c(C)cc(/C=C3\SC(=S)NC3=O)c2C)c(C#N)c1C,24.1 µM (active)
3,O=C(O)C1Nc2ccc(Br)cc2C2C=CCC12 (centres undefined),10.9 µM (active)
4,CCc1ccc(S(=O)(=O)/N=C2\C=C(NS(=O)(=O)c3ccccc3)C(=O)c3ccccc32)cc1,19.7 µM (active)
